Data as given in patent publication US10125138B2, “Triazolotriazinone derivatives having activity a s herbicides” (Syngenta Participations AG, priority 2015, dated 2018).

Experiments:
Type in all cases: in vivo
Settings in all cases: 1000 g/h, evaluated after 13 days, five point scale
[1] = system: Amaranthus retoflexus (AMARE); assay: Post-emergence glasshouse herbicide test, Amaranthus retoflexus
Experimental: (§1) Seeds of a variety of test species are sown in standard soil in pots (Lolium perenne (LOLPE), Solanum nigrum (SOLNI), Amaranthus retoflexus (AMARE), Setaria faberi (SETFA), Echinochloa crus-galli (ECHCG), Ipomoea hederacea (IPOHE)). After cultivation for one day (pre-emergence) or after 8 days cultivation (post-emergence) under controlled conditions in a glasshouse (at 24/16° C., day/night; 14 hours light; 65% humidity), the plants are sprayed with an aqueous spray solution derived from the formulation of the technical active ingredient in acetone/water (50:50) solution containing 0.5% Tween 20 (polyoxyethelyene sorbitan monolaurate, CAS RN 9005-64-5). […] The test plants are then grown in a glasshouse under controlled conditions in a glasshouse (at 24/16° C., day/night; 14 hours light; 65% humidity) and watered twice daily. After 13 days for pre and post-emergence, the test is evaluated for the percentage damage caused to the plant. The biological activities are shown in the following table on a five point scale (5=80-100%; 4=60-79%; 3=40-59%; 2=20-39%; 1=0-19%).

Solanum nigrum (SOLNI) [2] = assay: Post-emergence glasshouse herbicide test, Solanum nigrum
Experimental: (§2) Seeds of a variety of test species are sown in standard soil in pots (Lolium perenne (LOLPE), Solanum nigrum (SOLNI), Amaranthus retoflexus (AMARE), Setaria faberi (SETFA), Echinochloa crus-galli (ECHCG), Ipomoea hederacea (IPOHE)). After cultivation for one day (pre-emergence) or after 8 days cultivation (post-emergence) under controlled conditions in a glasshouse (at 24/16° C., day/night; 14 hours light; 65% humidity), the plants are sprayed with an aqueous spray solution derived from the formulation of the technical active ingredient in acetone/water (50:50) solution containing 0.5% Tween 20 (polyoxyethelyene sorbitan monolaurate, CAS RN 9005-64-5). Compounds are applied at 1000 g/h. The test plants are then grown in a glasshouse under controlled conditions in a glasshouse (at 24/16° C., day/night; 14 hours light; 65% humidity) and watered twice daily. After 13 days for pre and post-emergence, the test is evaluated for the percentage damage caused to the plant. The biological activities are shown in the following table on a five point scale (5=80-100%; 4=60-79%; 3=40-59%; 2=20-39%; 1=0-19%).

Solanum nigrum (SOLNI) [3] = assay: Pre-emergence glasshouse herbicide test, Solanum nigrum
Experimental: as §2

Setaria faberi (SETFA) [4] = assay: Pre-emergence glasshouse herbicide test, Setaria faberi
Experimental: as §1

[5] = system: Echinochloa crus-galli (ECHCG); assay: Post-emergence glasshouse herbicide test, Echinochloa crus-galli
Experimental: as §1

[6] = system: Ipomoea hederacea (IPOHE); assay: Pre-emergence glasshouse herbicide test, Ipomoea hederacea
Experimental: as §1

Lolium perenne (LOLPE) [7] = assay: Pre-emergence glasshouse herbicide test, Lolium perenne
Experimental: as §1

[8] = system: Ipomoea hederacea (IPOHE); assay: Post-emergence glasshouse herbicide test, Ipomoea hederacea
Experimental: as §1

Setaria faberi (SETFA) [9] = assay: Post-emergence glasshouse herbicide test, Setaria faberi
Experimental: as §1

[10] = system: Amaranthus retoflexus (AMARE); assay: Pre-emergence glasshouse herbicide test, Amaranthus retoflexus
Experimental: as §1

[11] = system: Echinochloa crus-galli (ECHCG); assay: Pre-emergence glasshouse herbicide test, Echinochloa crus-galli
Experimental: as §1

Lolium perenne (LOLPE) [12] = assay: Post-emergence glasshouse herbicide test, Lolium perenne
Experimental: as §1

| SMILES | percentage damage caused to the plant, POST Application AMARE [1] | percentage damage caused to the plant, POST Application SOLNI (Solanum nigrum (SOLNI) [2]) | percentage damage caused to the plant, PRE Application SOLNI (Solanum nigrum (SOLNI) [3]) | percentage damage caused to the plant, PRE Application SETFA (Setaria faberi (SETFA) [4]) | percentage damage caused to the plant, POST Application ECHCG [5] | percentage damage caused to the plant, PRE Application IPOHE [6] | percentage damage caused to the plant, PRE Application LOLPE (Lolium perenne (LOLPE) [7]) | percentage damage caused to the plant, POST Application IPOHE [8] | percentage damage caused to the plant, POST Application SETFA (Setaria faberi (SETFA) [9]) | percentage damage caused to the plant, PRE Application AMARE [10] | percentage damage caused to the plant, PRE Application ECHCG [11] | percentage damage caused to the plant, POST Application LOLPE (Lolium perenne (LOLPE) [12]) |
| --- | --- | --- | --- | --- | --- | --- | --- | --- | --- | --- | --- | --- |
| CCCn1nnnc1NC(=O)c1nn2cnn(-c3ccc(C(F)(F)F)cc3)c2nc1=O [Compound 1.043] | 5 (5=80-100%) | 5 (5=80-100%) | 5 (5=80-100%) | 5 (5=80-100%) | 1 (1=0-19%) | 3 (3=40-59%) | 3 (3=40-59%) | 4 (4=60-79%) | 4 (4=60-79%) | 4 (4=60-79%) | 2 (2=20-39%) | 3 (3=40-59%) |
| CCCn1nnnc1NC(=O)c1nn2cnn(-c3ccc(F)cc3)c2nc1=O [Compound 1.038] | 5 (5=80-100%) | 5 (5=80-100%) | 5 (5=80-100%) | 5 (5=80-100%) | 5 (5=80-100%) | 5 (5=80-100%) | 4 (4=60-79%) | 5 (5=80-100%) | 5 (5=80-100%) | 5 (5=80-100%) | 5 (5=80-100%) | 5 (5=80-100%) |
| Cn1ncnc1NC(=O)c1nn2cnn(-c3ccc(F)cc3)c2nc1=O [Compound 2.001] | 5 (5=80-100%) | 5 (5=80-100%) | 5 (5=80-100%) | 5 (5=80-100%) | 4 (4=60-79%) | 4 (4=60-79%) | 3 (3=40-59%) | 5 (5=80-100%) | 5 (5=80-100%) | 5 (5=80-100%) | 5 (5=80-100%) | 4 (4=60-79%) |
| CCCn1nnnc1NC(=O)c1nn2cnn(-c3cccc(OC)c3)c2nc1=O [Compound 1.036] | 5 (5=80-100%) | 5 (5=80-100%) | 5 (5=80-100%) | 5 (5=80-100%) | 4 (4=60-79%) | 4 (4=60-79%) | 5 (5=80-100%) | 5 (5=80-100%) | 5 (5=80-100%) | 5 (5=80-100%) | 5 (5=80-100%) | 5 (5=80-100%) |
| CCn1nnnc1NC(=O)c1nn2cnn(-c3ccc(OC)cc3)c2nc1=O [Compound 1.034] | 5 (5=80-100%) | 5 (5=80-100%) | 5 (5=80-100%) | 5 (5=80-100%) | 5 (5=80-100%) | 3 (3=40-59%) | 4 (4=60-79%) | 5 (5=80-100%) | 5 (5=80-100%) | 5 (5=80-100%) | 5 (5=80-100%) | 4 (4=60-79%) |
| CCn1nnnc1NC(=O)c1nn2cnn(-c3ccc(C(F)(F)F)cc3)c2nc1=O [Compound 1.042] | 4 (4=60-79%) | 5 (5=80-100%) | 5 (5=80-100%) | 5 (5=80-100%) | 3 (3=40-59%) | 4 (4=60-79%) | 4 (4=60-79%) | 4 (4=60-79%) | 4 (4=60-79%) | 5 (5=80-100%) | 5 (5=80-100%) | 3 (3=40-59%) |
| COc1ccc(-n2ncn3nc(C(=O)Nc4nnnn4C)c(=O)nc23)cc1 [Compound 1.003] | 5 (5=80-100%) | 5 (5=80-100%) | 5 (5=80-100%) | 5 (5=80-100%) | 5 (5=80-100%) | 5 (5=80-100%) | 4 (4=60-79%) | 5 (5=80-100%) | 5 (5=80-100%) | 5 (5=80-100%) | 5 (5=80-100%) | 4 (4=60-79%) |
| CCCn1nnnc1NC(=O)c1nn2cnn(-c3ccc(OC)cc3)c2nc1=O [Compound 1.035] | 4 (4=60-79%) | 5 (5=80-100%) | 5 (5=80-100%) | 5 (5=80-100%) | 5 (5=80-100%) | 5 (5=80-100%) | 5 (5=80-100%) | 5 (5=80-100%) | 4 (4=60-79%) | 5 (5=80-100%) | 5 (5=80-100%) | 5 (5=80-100%) |
| Cc1cccc(-n2ncn3nc(C(=O)Nc4nnnn4C)c(=O)nc23)c1 [Compound 1.026] | 5 (5=80-100%) | 5 (5=80-100%) | 5 (5=80-100%) | 5 (5=80-100%) | 5 (5=80-100%) | 4 (4=60-79%) | 5 (5=80-100%) | 5 (5=80-100%) | 5 (5=80-100%) | 5 (5=80-100%) | 5 (5=80-100%) | 4 (4=60-79%) |
| CCCCn1nnnc1NC(=O)c1nn2cnn(-c3ccc(C(F)(F)F)cc3)c2nc1=O [Compound 1.044] | 4 (4=60-79%) | 5 (5=80-100%) | 5 (5=80-100%) | 3 (3=40-59%) | 1 (1=0-19%) | 3 (3=40-59%) | 3 (3=40-59%) | 5 (5=80-100%) | 3 (3=40-59%) | 3 (3=40-59%) | 2 (2=20-39%) | 3 (3=40-59%) |
